Measurements as given in PubChem BioAssay AID248 (DTP/NCI, 2004).
Where “and” joins values, the source holds several entries; their conditions need not be identical. Equal entries are not always repeated. Toxic doses and inconclusive results are not listed. Cut-off read from the data, not from the text of the source: active = T/C of 150% or more; inactive = T/C below 125%.

Tested on: L1210 leukemia ip in BDF1 mice, survival T/C
Assay: NCI In Vivo Anticancer Drug Screen. Data for tumor model L1210 Leukemia (intraperitoneal) in B6D2F1 (BDF1) mice
Settings: endpoint: mean survival time, higher = longer survival
In short: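 Transplantable tumor model; survival measured in treated vs vehicle control mice. Value = treated/control.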

[1] = dose: 100.0 mg/kg/injection, schedule: Q01DX009 (ip), vehicle: Klucel (hydroxypropylcellulose) (HPC)
[2] = dose: 100.0 mg/kg/injection, schedule: Q04DX003 (ip), vehicle: saline
[3] = dose: 200.0 mg/kg/injection, schedule: Q01DX009 (ip), vehicle: Klucel (hydroxypropylcellulose) (HPC)
[4] = dose: 200.0 mg/kg/injection, schedule: Q04DX003 (ip), vehicle: saline
[5] = dose: 400.0 mg/kg/injection, schedule: Q01DX009 (ip), vehicle: Klucel (hydroxypropylcellulose) (HPC)
[6] = dose: 400.0 mg/kg/injection, schedule: Q04DX003 (ip), vehicle: saline
[7] = dose: 100.0 mg/kg/injection, schedule: Q01DX001 (ip), vehicle: saline
[8] = dose: 200.0 mg/kg/injection, schedule: Q01DX001 (ip), vehicle: saline
[9] = dose: 400.0 mg/kg/injection, schedule: Q01DX001 (ip), vehicle: saline
[10] = dose: 100.0 mg/kg/injection, schedule: Q01DX009 (ip), vehicle: other
[11] = dose: 100.0 mg/kg/injection, schedule: Q04DX003 (ip), vehicle: saline with Tween-80
[12] = dose: 200.0 mg/kg/injection, schedule: Q01DX009 (ip), vehicle: other
[13] = dose: 200.0 mg/kg/injection, schedule: Q04DX003 (ip), vehicle: saline with Tween-80
[14] = dose: 400.0 mg/kg/injection, schedule: Q01DX009 (ip), vehicle: other
[15] = dose: 400.0 mg/kg/injection, schedule: Q04DX003 (ip), vehicle: saline with Tween-80
[16] = dose: 25.0 mg/kg/injection, schedule: Q01DX009 (ip), vehicle: saline with Tween-80
[17] = dose: 100.0 mg/kg/injection, schedule: Q01DX009 (ip), vehicle: saline with Tween-80
[18] = dose: 50.0 mg/kg/injection, schedule: Q01DX001 (ip), vehicle: saline
[19] = dose: 200.0 mg/kg/injection, schedule: Q01DX009 (ip), vehicle: saline with Tween-80
[20] = dose: 400.0 mg/kg/injection, schedule: Q01DX009 (ip), vehicle: saline with Tween-80

Measured: T/C

S=C1NC(c2ccco2)N2C(=S)NC(c3ccco3)N12 (configuration not stated)
inactive: dose: 100.0 mg/kg/injection, schedule: Q01DX009 (ip), vehicle: gum acacia 90 % of control | dose: 100.0 mg/kg/injection, schedule: Q04DX003 (ip), vehicle: gum acacia 97 % of control | dose: 200.0 mg/kg/injection, schedule: Q01DX009 (ip), vehicle: gum acacia 95 % of control | dose: 200.0 mg/kg/injection, schedule: Q04DX003 (ip), vehicle: gum acacia 103 % of control | dose: 400.0 mg/kg/injection, schedule: Q01DX009 (ip), vehicle: gum acacia 95 % of control | dose: 400.0 mg/kg/injection, schedule: Q04DX003 (ip), vehicle: gum acacia 98 % of control

CSc1ccccc1C(O)Cc1ccc([N+](=O)[O-])cc1 (configuration not stated)
inactive: [1] 105 % of control | [2] 98 % of control | [3] 93 % of control | [4] 98 % of control | [5] 96 % of control | [6] 95 % of control

[Mg+2]
inactive: [7] 96 % of control | dose: 100.0 mg/kg/injection, schedule: Q01DX009 (ip), vehicle: saline 95 % of control | [2] 93 % of control | [8] 91 % of control | dose: 200.0 mg/kg/injection, schedule: Q01DX009 (ip), vehicle: saline 95 % of control | [4] 89 % of control | [9] 96 % of control | dose: 400.0 mg/kg/injection, schedule: Q01DX009 (ip), vehicle: saline 97 % of control | [6] 88 % of control

CCOc1ccc2nc(C)sc2c1
inactive: dose: 100.0 mg/kg/injection, schedule: Q04DX003 (ip), vehicle: acetone 97 % of control | dose: 200.0 mg/kg/injection, schedule: Q04DX003 (ip), vehicle: acetone 95 % of control | dose: 400.0 mg/kg/injection, schedule: Q04DX003 (ip), vehicle: acetone 93 % of control

Cc1cccc(Nc2cc(Cl)nc(N)n2)c1
inactive: dose: 100.0 mg/kg/injection, schedule: Q01DX Z (ip), vehicle: methylcellulose (MC) 97 % of control | dose: 200.0 mg/kg/injection, schedule: Q01DX Z (ip), vehicle: methylcellulose (MC) 89 % of control

C1CC2CCCC3CC(B4OCCO4)CC(C1)C23 (configuration not stated) (tested in a mixture with another compound)
inactive: [10] 101 % of control | [11] 97 % of control | [12] 105 % of control | [13] 92 % of control | [14] 108 % of control | [15] 106 % of control

C[n+]1c(/C=C/c2ccc3c(c2)OCO3)ccc2ccccc21
inactive: [16] 108 % of control | dose: 25.0 mg/kg/injection, schedule: Q04DX003 (ip), vehicle: Klucel (hydroxypropylcellulose) (HPC) 106 % of control | dose: 33.0 mg/kg/injection, schedule: Q01DX009 (ip), vehicle: gum acacia 114 % of control | dose: 50.0 mg/kg/injection, schedule: Q01DX009 (ip), vehicle: gum acacia 98 % of control | dose: 50.0 mg/kg/injection, schedule: Q04DX003 (ip), vehicle: Klucel (hydroxypropylcellulose) (HPC) 101 % of control | dose: 100.0 mg/kg/injection, schedule: Q04DX003 (ip), vehicle: Klucel (hydroxypropylcellulose) (HPC) 95 % of control and 89 % of control

O=C(CNC(=O)c1ccccc1)Oc1c(Cl)c(Cl)c(Cl)c(Cl)c1Cl
inactive: [10] 104 % of control | [12] 98 % of control | [14] 93 % of control

CC(=O)Cc1ccc(C(=O)C(C)Cc2ccc(C(C)=O)cc2)cc1 (configuration not stated)
inactive: [11] 90 % of control | [13] 110 % of control | [15] 92 % of control

Clc1ccccc1-c1ncc2cnccn12
inactive: [16] 98 % of control | dose: 25.0 mg/kg/injection, schedule: Q04DX003 (ip), vehicle: saline with Tween-80 90 % of control | dose: 50.0 mg/kg/injection, schedule: Q01DX009 (ip), vehicle: saline with Tween-80 101 % of control | dose: 50.0 mg/kg/injection, schedule: Q04DX003 (ip), vehicle: saline with Tween-80 102 % of control | [17] 107 % of control | [11] 96 % of control and 92 % of control

OCCc1ccccc1O
inactive: [18] 94 % of control | [7] 94 % of control | [8] 100 % of control | [9] 100 % of control

O=S(=O)(/C=C/c1ccccc1)N1CCCCC1
inactive: [7] 103 % of control | [8] 102 % of control | [9] 102 % of control

Cc1nc(-c2ccc(N=Cc3ccc(N(CCCOS(C)(=O)=O)CCCOS(C)(=O)=O)cc3C)cc2)c(C)s1
inactive: [17] 100 % of control | [19] 93 % of control

CC(C)(C)OC(=O)CSC#N
inactive: dose: 5.0 mg/kg/injection, schedule: Q01DX001 (ip), vehicle: saline 101 % of control | dose: 10.0 mg/kg/injection, schedule: Q01DX001 (ip), vehicle: saline 95 % of control | dose: 20.0 mg/kg/injection, schedule: Q01DX001 (ip), vehicle: saline 101 % of control

CC(=O)N(C)C1=C(Sc2ccc(Cl)cc2)C(=O)c2ccccc2C1=O
inactive: dose: 75.0 mg/kg/injection, schedule: Q01DX001 (ip), vehicle: carboxymethylcellulose (CMC) 91 % of control | dose: 150.0 mg/kg/injection, schedule: Q01DX001 (ip), vehicle: carboxymethylcellulose (CMC) 88 % of control

CCCCCCCNN=C(N)N
inactive: [7] 98 % of control | [2] 111 % of control | [8] 98 % of control | [4] 95 % of control | [9] 97 % of control | [6] 117 % of control

N#CSC(C(=O)c1ccccc1)c1ccccc1 (configuration not stated)
inactive: [11] 92 % of control | [13] 91 % of control | [15] 92 % of control

CCCCN(CCCC)C(=O)CC(C)(O)c1ccccc1 (configuration not stated)
inactive: [18] 96 % of control | [7] 107 % of control | [8] 94 % of control | [9] 96 % of control

O=C(Nc1ccccc1)C(CCCCN1C(=O)c2ccccc2C1=O)N1C(=O)c2ccccc2C1=O (configuration not stated)
inactive: [1] 95 % of control | [3] 106 % of control | [5] 100 % of control

C/C=C\C=C\C(=O)OC
inactive: [11] 99 % of control | [13] 89 % of control | [15] 92 % of control

NC1=N/C(=C/[N+](=O)[O-])c2ccccc21
inactive: dose: 6.25 mg/kg/injection, schedule: Q04DX003 (ip), vehicle: saline 93 % of control | dose: 12.5 mg/kg/injection, schedule: Q04DX003 (ip), vehicle: saline 96 % of control

c1ccc(Nc2nc3ccccc3o2)cc1
inactive: dose: 100.0 mg/kg/injection, schedule: Q01DX001 (ip), vehicle: Klucel (hydroxypropylcellulose) (HPC) 93 % of control | [1] 92 % of control | dose: 200.0 mg/kg/injection, schedule: Q01DX001 (ip), vehicle: Klucel (hydroxypropylcellulose) (HPC) 89 % of control | [3] 95 % of control | dose: 400.0 mg/kg/injection, schedule: Q01DX001 (ip), vehicle: Klucel (hydroxypropylcellulose) (HPC) 86 % of control | [5] 94 % of control

CCCCCCCCC1SC1CCCCCCCC(=O)OCCOCCOCC (configuration not stated)
inactive: [17] 95 % of control | [19] 92 % of control | [20] 95 % of control

CCOc1ccc(Br)cc1/C=N/NS(=O)(=O)c1ccc(C)cc1
inactive: [17] 94 % of control | [11] 97 % of control | [19] 97 % of control | [13] 103 % of control | [20] 101 % of control | [15] 103 % of control

CC(Cc1ccccc1)C(=O)c1ccccc1 (configuration not stated)
inactive: dose: 100.0 mg/kg/injection, schedule: Q01DX001 (ip), vehicle: saline with Tween-80 102 % of control | [17] 102 % of control | dose: 200.0 mg/kg/injection, schedule: Q01DX001 (ip), vehicle: saline with Tween-80 94 % of control | [19] 97 % of control | dose: 400.0 mg/kg/injection, schedule: Q01DX001 (ip), vehicle: saline with Tween-80 94 % of control | [20] 98 % of control

CCC(=O)NC(CC(C)C)C(=O)NC(CC(C)C)C(=O)NC(C=O)CCCN=C(N)N (configuration not stated) (tested in a mixture with another compound)
inactive: dose: 25.0 mg/kg/injection, schedule: Q04DX002 (ip), vehicle: saline 98 % of control | dose: 50.0 mg/kg/injection, schedule: Q04DX002 (ip), vehicle: saline 91 % of control | dose: 100.0 mg/kg/injection, schedule: Q04DX002 (ip), vehicle: saline 91 % of control

CCCCCCCCC1SC1CCCCCCCC(=O)OCCCOC(=O)CCCCCCCC1SC1CCCCCCCC (configuration not stated)
inactive: [17] 98 % of control | [19] 93 % of control | [20] 96 % of control
